Test results as given in patent US20240293511A1, “HEPCIDIN MIMETICS FOR TREATMENT OF HEREDITARY HEMOCHROMATOSIS” (Protagonist Therapeutics, Inc., priority 2021, published 2024).

Test system: HH patients
Test: Phase 2 open-label dose-finding study in hereditary hemochromatosis patients
Format: in vivo, human
Procedure: A clinical efficacy study was conducted in HH patients. Subjects received subcutaneous Compound 25 for up to 24 weeks. Subjects were started at an initial dose of 10 mg per week subcutaneously. The dose was increased to 20 mg per week, and subsequently to 40 mg and to 80 mg per week as needed, based on tolerability and the pharmacodynamic marker TSAT. In addition, subcutaneous dosing schedules of 10 mg, 20 mg, 30, and 40 mg twice weekly (Day 1 and either Day 4 or Day 5 were tested). The majority of patients were administered doses of 20 mg per week or less. Subjects' safety and blood iron parameters (serum iron, serum ferritin, transferrin, and TSAT) were collected to monitor the pharmacodynamic effect of Compound 25. Effects on phlebotomy need and QoL data (36-Item Short Form Health Survey [SF-36], and Patient's Global Impression of Change [PGI-C]) were also be collected and tabulated.
Individual subject's dose and schedule were determined based on the pharmacodynamic (PD) marker TSAT measured at two time points following dosing: once at peak PD effect one day post dose and once at trough PD effect. […] The trough PD effect was the TSAT value measured 7 days after the Compound 25 dose (and before the next dose) for once weekly dosing or 7 days after the first dose in a week for twice weekly dosing. […] To facilitate dose escalation and the identification of a therapeutic dose, investigators assessed TSAT values on days subjects came to the clinic for any dose adjustments.
Methods: This single-arm, open-label, dose-finding phase 2 study investigated subcutaneous hepcidin mimetic (Compound 25) in patients (pts) with confirmed HH who were on documented stable phlebotomies (phl) for at least 6 months (mos) prior to treatment with a phl frequency of 0.25-1 per month. […] Endpoints included TSAT, serum iron, serum transferrin and serum ferritin, liver iron content (LIC) measured by FerriScan MRI, adverse events, and patient-reported outcomes on the Patient Global Impression of change (PGI-C) and Medical Outcome Study Questionnaire Short Form Health Survey (SF-36). […]

## CCCCCCCCCCCCCCCC(=O)N[C@@H](CCC(=O)NCCCC[C@@H]1NC(=O)[C@H]([C@@H](C)CC)NC(=O)[C@@H](NC(=O)[C@@H]2CCCN2C(=O)[C@H](Cc2ccccc2)NC(=O)[C@H](Cc2c[nH]cn2)NC(=O)[C@@H](NC(=O)[C@H](CC(=O)O)NC(=O)CC(C)C)[C@@H](C)O)CSSC[C@@H](C(=O)N[C@@H](CCCCN)C(N)=O)NC(=O)CNC(=O)[C@H](CCCCN)NC(=O)[C@H](CO)NC(=O)[C@H](CCCNC(=N)N)NC(=O)[C@@H]2CCCN2C(=O)[C@H](CCC(=O)O)NC(=O)[C@H](Cc2ccccc2)NC1=O)C(=O)O [Compound 25, Isovaleric acid-DTHFPCI(K(isoGlu-Palm))FEPRSKGCK-NH2]
HH patients, subcutaneous, up to 24 weeks
  tolerability: generally well tolerated
All treatment-related adverse events
  treatment-related adverse events, severity: CTCAE grade 1 or 2
human, in vivo
  hematological parameters (hematocrit, erythrocytes, leucocytes, platelets): no notable changes
